Reference: paper PMC6200358 (Science Advances, 2018)

What was measured:
human CB1R = human CB1R (Homo sapiens, UniProt P21554); test: [35S]GTPγS binding assay, CHO-hCB1 membranes; assay type: biochemical
human CB2R = human CB2R (Homo sapiens, UniProt P34972); test: [35S]GTPγS binding assay, CHO-hCB2 membranes; assay type: biochemical
BALB/c mice = test: Tetrad test; assay type: in vivo, mouse; conditions: pretreatment at 5 mg/kg

human CB1R, sequence (P21554 whole entry): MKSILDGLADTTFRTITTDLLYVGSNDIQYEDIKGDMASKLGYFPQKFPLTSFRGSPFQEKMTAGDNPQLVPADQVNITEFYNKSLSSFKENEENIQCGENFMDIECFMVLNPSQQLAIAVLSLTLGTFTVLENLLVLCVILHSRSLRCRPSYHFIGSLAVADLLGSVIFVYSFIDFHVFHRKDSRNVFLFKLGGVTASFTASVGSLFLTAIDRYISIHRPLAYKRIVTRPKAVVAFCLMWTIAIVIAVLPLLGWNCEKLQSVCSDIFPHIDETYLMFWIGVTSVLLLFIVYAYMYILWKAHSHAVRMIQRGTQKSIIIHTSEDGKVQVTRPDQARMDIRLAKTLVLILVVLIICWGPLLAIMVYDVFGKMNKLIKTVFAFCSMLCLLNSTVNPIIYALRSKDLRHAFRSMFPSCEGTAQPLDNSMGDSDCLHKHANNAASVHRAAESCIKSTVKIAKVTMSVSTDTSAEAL
human CB2R, sequence (P34972 whole entry): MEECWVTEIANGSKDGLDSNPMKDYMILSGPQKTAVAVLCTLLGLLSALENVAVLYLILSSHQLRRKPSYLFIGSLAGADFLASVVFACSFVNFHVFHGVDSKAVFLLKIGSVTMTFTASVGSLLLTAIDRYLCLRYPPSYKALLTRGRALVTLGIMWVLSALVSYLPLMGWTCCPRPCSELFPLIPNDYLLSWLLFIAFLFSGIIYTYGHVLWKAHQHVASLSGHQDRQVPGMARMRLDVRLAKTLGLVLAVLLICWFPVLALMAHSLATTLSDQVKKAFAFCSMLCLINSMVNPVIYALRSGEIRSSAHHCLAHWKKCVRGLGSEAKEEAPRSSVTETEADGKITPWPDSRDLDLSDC

| Structure (SMILES) | CB1R agonist type (full or partial agonist) (human CB1R; [35S]GTPγS binding) | Emax (human CB1R; read-out: Receptor activation CB1R (Emax)) | CB2R agonist type (full or partial agonist) (human CB2R; [35S]GTPγS binding) | Emax (human CB2R; read-out: Receptor activation CB2R (Emax)) | Blockade of the tetrad effects of PET and THC diastereoisomers (BALB/c mice) |
| --- | --- | --- | --- | --- | --- |
| CCCCCCC(C)(C)c1ccc([C@@H]2C[C@H](O)CC[C@H]2CCCO)c(O)c1 [CP55,940] | full | 173 ± 6% | full | 194 ± 5% | – |
| Cc1c(C(=O)NN2CCCCC2)nn(-c2ccc(Cl)cc2Cl)c1-c1ccc(Cl)cc1 [rimonabant, Rimonabant] | – | – | – | – | fully abolished |
